Measurements from patent US20020193343A1, “Controlled enzymatic degradation of guar galactomannan solutions using enzymatic inhibition” (priority 2000, published 2002).

Tests used:
[1] = test system: Aspergillus niger β-mannanase; test: Enzyme degradation assay of guar solutions (viscosity reduction, steady shear rheology); format: biochemical; details: for inhibition of β-mannanase by TRIS variants (zero shear viscosity): 25 mM
Method: Enzyme Degradation Assay: Enzyme degradation was conducted with 7 mg/ml purified guar solutions containing 0.2 mg/ml sodium azide and 20 mM of the appropriate buffer. Guar solutions (19 ml) and enzyme stock solution were separately pre-incubated at 25° C. for 15 minutes, followed by the addition of 78.9 μl of enzyme stock solution to 19 ml of guar solution. The final enzyme concentration was 8.3×10^−4 U/ml. The mixture was shaken at an agitation speed of 2 at 25° C. for 1 hour in a New Brunswick gyrotory water bath shaker (Model G76). The enzyme was denatured after 1 hour by placing the enzyme/guar solution in a 90° C. water bath for 10 minutes. Enzyme hydrolysis was conducted at different pH's using various buffers: sodium acetate was used for pH 4 and 5, MES was used for pH 6, sodium phosphate was used for pH 7 and pH 8 and glycine was used for pH 9. If inhibitor, inhibitor variant or NaCl was used, the appropriate amount was added to the guar solution and the pH was readjusted to the appropriate value. […] After incubating each of these solutions at 25° C. for 30 minutes, 78.9 μl of this solution was added to 19 ml of guar solution and the enzymatic degradation of guar was analyzed following known techniques.
Rheology: Steady shear experiments were conducted using a Rheometrics Dynamic Stress Rheometer (DSR II) and a couette fixture with a cup diameter of 31.9 mm, a bob diameter of 29.5 mm and a bob length of 44.25 mm. All experiments were performed at 25° C. and all reported data were reproducible within 10%. Steady shear experiments were performed to determine viscosity, η, as a function of shear rate. […] To analyze a portion of the data, a normalized relative activity was defined using the viscosity data. At a particular pH, the viscosity difference (Δη) between the initial zero shear viscosity and the zero shear viscosity after 1 hour of degradation was used as the reference Δη. […] In summary, [formula]

[2] = from 25 degrees C. to 60 degrees C.
Description: The relative amounts of the two forms are dependent on the pH of the solution and can be predicted by the Henderson-Hasselbach equation.

O=C(O)CNC(CO)(CO)CO [N-tris (hydroxymethyl) methylglycine, reference compound]
inhibition of β-mannanase by TRIS variants (zero shear viscosity) ([1]; pH 9, 1 hour): no inhibition

[Cl-].[Na+] [NaCl]
effect of added salt on viscosity reduction by the enzyme ([1]; pH 4 and pH 9, same quantities as with TRIS hydrochloride): did not alter the viscosity reduction

NC(CO)(CO)CO [TRIS, 2-amino-2-hydroxymethyl-1,3-propanediol]
pH drop on temperature increase [2]: 0.98 | inhibition of β-mannanase degradation of guar ([1]; 1 mM TRIS, pH 9, 1 hour): only minimal inhibition | viscosity reduction of guar by β-mannanase ([1]; 1 mM TRIS, pH 9, 5 hours): impeded viscosity reduction considerably | inhibition of β-mannanase degradation of guar ([1]; 5 mM TRIS, pH 9, 1 hour): inhibited the degradation considerably | viscosity reduction of guar by β-mannanase ([1]; 10 mM TRIS, pH 9, 5 hours): minimal viscosity reduction | viscosity reduction of guar by β-mannanase ([1]; 10 mM and higher TRIS, pH 9, 1 hour): no viscosity reduction | inhibition of enzyme degradation ([1]; 25mM TRIS, pH 9, enzyme 8.3×10^−4 U/ml): inhibits enzyme degradation for an extended period of time | viscosity reduction of guar by β-mannanase ([1]; 25 mM and higher TRIS, pH 9, 5 hours): no viscosity reduction | inhibition after mixing TRIS with the enzyme solution before addition to guar ([1]; TRIS to enzyme molar ratio 1:1 and 5:1, 30 minutes pre-incubation): neither of these solutions showed any inhibition | type of inhibition ([1]; degradation triggered after 5 hours by pH shift): reversible inhibitor | effect on enzymatic hydrolysis by β-mannanase ([1]; pH 4, 1 hour, 0-25 mM TRIS): did not impede enzymatic hydrolysis | inhibition of β-mannanase at pH 7 compared with pH 9 ([1]; pH 7, low concentrations of TRIS, 1 hour): better inhibitor of the enzyme than at pH 9 | viscosity reduction of guar by β-mannanase with TRIS as buffer ([1]; pH 8, 1 hour, 7 mg/ml guar, 8.3×10^−4 U/ml enzyme): negligible reduction in viscosity

O=[N+]([O-])C(CO)(CO)CO [Tris (hydroxymethyl) nitromethane, reference compound]
inhibition of β-mannanase by TRIS variants (zero shear viscosity) ([1]; pH 9, 1 hour): no inhibition

Tris(hydroxymethyl)aminomethane [base form of TRIS]
inhibition of β-mannanase, base form compared with hydrochloride form ([1]; base form of TRIS (without any salts)): exactly the same as that of TRIS in its hydrochloride form
